Source: patent US20070105787A1, “Use of ribose in recovery from anaesthesia” (priority 2004, published 2007)

Tests used:
[1] = test system: sheep undergoing aortic valve replacement under general anaesthesia
[2] = test system: healthy dog hearts after 20 minute normothermic global myocardial ischemia; settings: D-Ribose from reperfusion for at least four days; cited from earlier work
[3] = test system: Wistar rats, recovery from general anaesthesia; test: planned rat sham abdominal surgery study under halothane anaesthesia; format: in vivo; settings: D-Ribose before, during and after sham operation, vs D-Glucose placebo
Experimental: Littered-paired Wistar rats will be preconditioned with oral D-Ribose (250 mg/day, 10 animals) as a test drug or D-Glucose (250 mg/day, 10 animals) as a placebo for five days. Following the preconditioning, the rats will be anesthetized with halothane, intubated for artificial respiration and paralyzed with curare. Following general anaesthesia, the rats will be given either the test drug or placebo, intravenously (IV). A two-inch abdominal incision will be made and the viscera will be carefully manipulated to simulate an abdominal exploratory surgery. The incision will be closed and the animals will be held under anaesthesia for one additional hour. Following that hour, anaesthesia will be discontinued and the IV infusion will be halted. The animals will be placed individually in activity cages and their activity will be assessed daily for five days. Test drug or placebo will be added to the drinking water at a dosage of 5% wt/vol. The blinded results will be observed for: first movement (return to consciousness following the sham operation) and daily activity over the first day and next five days. Food and water intake and gastrointestinal function will be measured.

[4] = test system: patients selected for OCBP revascularization; test: presurgical oral ribose loading, off cardiopulmonary bypass (OCBP) revascularization trial; format: in vivo, human; settings: oral D-ribose preoperatively (24 patients) vs no ribose (20), baseline to post-operative, p<0.028
Excerpt: Patients with stable coronary artery disease or patients presenting with acute myocardial infarction may undergo revascularization using an “off” cardiopulmonary bypass procedure (“OCBP”). This procedure avoids the deleterious effects of cross-clamping in patients who can be selected for the procedure. The selection criteria include: accessibility of the grafts; number of the grafts; condition of the patient. When the area to be revascularized is at the back of the heart, the heart will need to be handled and rotated, which would interfere with the beating of the heart. If several grafts are needed, the time of operation is prolonged and the patient's heart will need to support circulation for a long time. Finally, a poorly functioning heart will need the assistance of the pump to support circulation. Nevertheless, in properly selected patients, the benefits of avoiding cross-clamping are substantial.
Forty-four adult patients were enrolled in a trial. At least one-third of the patents had sustained an acute myocardial infarction prior to presentation and pre-operative ejection fractions ranged from 30-72%. All patients were selected for OCBP revascularization with 20 patients comsuming no pre-operative ribose and 24 patients given oral D-ribose preoperatively, cardiac indices were measured at baseline and post-operatively. […]

[5] = test system: myocardial dysfunction resulting from globally induced ischemia during cardiac surgical procedures; format: in vivo, human
Excerpt: Inclusion criteria were: • Males or females aged 18 or older • Patients with documented coronary artery disease undergoing CABG with an ejection fraction (EF) of ≦35% based on echocardiography, radionuclide imaging or cardiac catheterization done within eight weeks of surgery. (If more than one method was used to evaluate EF during this period, the mean values of the various methods were ≦35%). • Patients undergoing single or double valve replacement with documented coronary artery disease also undergoing CABG; or patients undergoing single or double valve replacement without CABG • Serum creatinine of ≦2.35 mg/dl • For females of childbearing potential, a negative pregnancy test. • Signed consent forms. The test article, placebo or ribose, was dispensed according to computer-generated randomization schedule either for patients undergoing CABG only or for patients undergoing heart valve surgery +/-CABG. All patients received a high dose narcotic anaesthesia technique consisting of either fentanyl (50-100 μg/kg) or sufentanil (10-20 μg/kg) and midazolam. No restriction was placed on the type of anaesthetic agents administered. The anaesthesiologists and surgeons responsible for the care of the patents made the clinical decision to use inotropic support, intra-aortic balloon pump support or post bypass circulatory support based on their knowledge of patients requirements and accepted medical practice and without regard to test article status. The test article infusion was started intravenously at the time of aortic cross clamping and continued until the pulmonary artery catheters introducer was removed or for five days (120) hours whichever occurred first. The surgeons responsible for the clinical care of the patients removed the pulmonary artery catheter cordis without regard to test article stats. Hemodynamic measurements consisting of heart rate, blood pressure, pulmonary artery pressures, pulmonary capillary wedge pressure (PCWP), central venous pressure (CVP) and thermodilution cardiac index (CI) were obtained at the following time intervals: immediately prior to induction of anaesthesia, post induction of anaesthesia prior to sternotomy, post sternotomy prior to initiation of cardiopulmonary bypass, upon successful termination of cardiopulmonary bypass prior to sternal closure and prior to reversal of heparinization with protamine, post closure of the sternum, upon arrival in the intensive care unit and at one or two hour intervals until the pulmonary artery a catheter was removed. Transesophageal echocardiography data (H.P. Sonos OR, 5.0 MHz, Andover, Mass.) was collected at the following time intervals: post induction of anaesthesia prior to sternotomy, and immediately post closure of the sternum. Transthoracic echocardiography (H.P. Sonos 1500. 2.5 MHz, Andover, Mass.) measurements were made on day three and day seven of the study period. For both the transesophageal and transthoracic echocardiograms, the following long axis and short axis mid-papillary area changes were measured in triplicate by acoustic quantification techniques: end diastolic area (EDA), end systolic area (ESA), fractional area change (FAC), +dA/dt and -dA/dt. All area change data were also analyzed by manual off line analysis. EF was also determined off line using a long axis view. In addition, regional wall motion was quantified as the following: normal=1, hypokinetic=2, akinetic=3 and dyskinetic=4. The wall motion index score (WMIS) and percentage normal myocardium were calculated by reading a maximum of sixteen segments. Echocardiography data for evaluating wall motion and area change was analyzed only if greater than 75% of the endocardial border could be visualized through a complete cardiac cycle. […]

[6] = test system: recovery from general anaesthesia; test: anecdotal reports, non-cardiac surgery with general anaesthesia; format: in vivo, human; settings: person, vs first operation
Excerpt: A. Anecdotal Results from Non-Cardiac Surgery with General Anaesthesia. […] For example, a person underwent two hip replacement operations, five months apart. With the second operation, they began taking oral ribose immediately after their recovery from anaesthesia. Their recovery to a feeling of alertness and energy was more rapid than after the first operation. Furthermore, their level of pain was less. Likewise, a person also underwent two knee replacement operations. With the second operation, they self-administered D-Ribose pre- and postoperatively. Their recovery to a feeling of alertness and energy was more rapid than after the first operation. Bauer et al. (Z. Geb. Neonatal 2001 May-June, 205(3):80-85) studied the efficacy of oral glucose for treating procedural pain in neonates. […] The authors proposed that the orogustatory stimulation by the sweet taste caused an endorphin release. It is not known whether the result seen was due to the local effect or to a systemic effect of glucose.

[7] = test system: patients undergoing AVR with aortic cross clamping; test: planned trial of preoperative oral plus intravenous D-Ribose before cross clamping (Example 3); format: in vivo, human; settings: oral D-Ribose preloading plus IV 100 mg/kg/hour with D-Glucose, vs placebo
Excerpt: A single-center, randomized, double-blinded placebo-controlled clinical trial was designed to determine if preoperative oral administration of D-Ribose, following by peri-operative and operative intravenous infusion of D-Ribose could improve the ejection fraction and other functional parameters of hearts that are cross-clamped for various cardiac surgical procedures. Thirty (30) patients meeting the inclusion and exclusion criteria and who have signed informed consent forms will be randomized to receive oral D-Ribose (15) or D-Glucose (placebo) (15) for seven or 14 days prior to their surgical procedure and intravenous 5% […] (5% D-Glucose in normal saline, 0.5 mL/kg/hour) or 10% pyrogen-free D-Ribose in 5% D5W at a dose of 100 mg/kg/hour for five (5) days through a pulmonary artery cordis) beginning at the time of aortic cross clamping. […] Patients will be evaluated baseline×2, (once prior to beginning oral test supplement and again within three days prior to surgical procedure), during and after surgery, and at days 1, 5 and 7. […] Patients will be evaluated for eligibility within three days to first test article administration and evaluation will be updated within three days prior to surgery. […] A medication history will be taken and all medications recorded in the case report. […]

[8] = test system: procedural pain in neonates; settings: glucose solution on the tongue; cited from earlier work
[9] = second hip replacement, oral ribose after anaesthesia

Structure (SMILES) | tolerability (metabolic or chemical abnormalities) ([1]; in vivo, iv) | time quiet and inactive after extubation ([1]; sheep given ribose) | time to eating solid food ([1]; sheep given ribose, some animals, after the quiet period) | time to assume a consciousness state upon weaning from the ventilator ([1]; sheep, vs animals not given ribose) | time to cardiac arrest with cardioplegia ([1]; sheep, vs animals not given ribose, difference not statistically significant) | ATP recovery [2] | expected movement after anaesthesia and activity during the following five days [3] | greater increase in cardiac indices compared to controls [4] [%] | patients who developed hypoglycemia (fingerstick glucose<70 mg/dl) ([5]; both, human, in vivo) [%] | lowest glucose level ([5]; human, in vivo) [mg/dL] | mean glucose level in those patients developing hypoglycemia ([5]; human, in vivo) [mg/dL] | neurological or other clinical symptoms associated with hypoglycemia ([5]; human, in vivo) | mean Day 7 EF ([5]; ribose treated patients, Day 7, echocardiography, IV 100 mg/kg/hr, p=0.49 vs baseline) [%] | mean baseline EF ([5]; ribose treated patients, baseline, echocardiography, IV 100 mg/kg/hr) [%] | change of EF from baseline to Day 7 ([5]; ribose treated patients, placebo EF declined, treatment effect p=0.04) | level of pain [6, 9] | recovery to a feeling of alertness and energy [6, 9] | recovery to a feeling of alertness and energy ([6]; second knee replacement, D-Ribose pre- and postoperatively) | expected myocardial function and recovery [7] | degree of pain experienced during venous blood sampling [8]
O=C[C@H](O)[C@H](O)[C@H](O)CO [D-Ribose] | no metabolic or chemical abnormalities | about one | within the next hour | faster | somewhat faster | enhanced ATP recovery | earlier movement after anaesthesia and increased activity | 49 | 28 | 31 | 58 | None of these patients developed neurological or other clinical symptoms | 41 | 44 | unchanged | less | more rapid | more rapid | better myocardial function | 
O=C[C@H](O)[C@@H](O)[C@H](O)[C@H](O)CO [glucose, D-Glucose] |  |  |  |  |  |  |  |  |  |  |  |  |  |  |  |  |  |  |  | reduced the degree of pain
